Source: ChEMBL document CHEMBL2029314, “Discovery of HIV fusion inhibitors targeting gp41 using a comprehensive α-helix mimetic library” (Bioorg Med Chem Lett, 2012)
pIC50, pKi: −log10 of the molar value.

Test: Displacement of C18-Aib-lucifer yellow from HIV1 envelope glycoprotein gp41 Fe(env2.0)3 by fluorescence assay
Design: species or system Human immunodeficiency virus 1
Settings: not given

Point of comparison: N[C@@H](CC(=O)O)C(=O)Nc1ccc(C(=O)NCCc2c[nH]c3ccccc23)cc1OCCc1c[nH]c2ccccc12, pKi 4.74. Against it:
- COc1ccc(C[C@H](N)C(=O)Nc2ccc(C(=O)N[C@@H](Cc3c[nH]c4ccccc34)C(=O)O)cc2OCCc2c[nH]c3ccccc23)cc1 — 1.41 log units higher, 6.15
- N[C@@H](Cc1ccc(O)cc1)C(=O)Nc1ccc(C(=O)N[C@@H](CCc2ccccc2)C(=O)O)cc1OCc1ccc(Cl)cc1 — not separable, > 4.60
- COC(=O)[C@H](Cc1c[nH]c2ccccc12)NC(=O)c1ccc(NC(=O)[C@@H](N)CC(=O)O)c(OCCc2c[nH]c3ccccc23)c1 — within 0.2 log units, 4.68
- N[C@@H](CO)C(=O)Nc1ccc(C(=O)N[C@@H](Cc2c[nH]c3ccccc23)C(=O)O)cc1OCCc1c[nH]c2ccccc12 — higher, > 5.00
- C[C@@H](O)[C@H](N)C(=O)Nc1ccc(C(=O)N[C@@H](Cc2c[nH]c3ccccc23)C(=O)O)cc1OCCc1c[nH]c2ccccc12 — higher, > 5.00
- CC(C)C[C@H](N)C(=O)Nc1ccc(C(=O)N[C@@H](CCc2ccccc2)C(=O)O)cc1OCc1ccc2ccccc2c1 — higher, > 5.00
- C[C@H](N)C(=O)Nc1ccc(C(=O)N[C@@H](Cc2c[nH]c3ccccc23)C(=O)O)cc1OCCc1c[nH]c2ccccc12 — higher, > 5.00
- CC[C@H](C)[C@H](N)C(=O)Nc1ccc(C(=O)N[C@@H](CCc2ccccc2)C(=O)O)cc1OCc1ccc2ccccc2c1 — higher, > 5.00
- N[C@@H](CCc1ccccc1)C(=O)Nc1ccc(C(=O)N[C@@H](CCc2ccccc2)C(=O)O)cc1OCc1ccc(Cl)cc1 — not separable, > 4.60
- CC[C@H](C)[C@H](N)C(=O)Nc1ccc(C(=O)N[C@@H](Cc2c[nH]c3ccccc23)C(=O)O)cc1OCCc1c[nH]c2ccccc12 — higher, > 5.00
- N[C@@H](CCc1ccccc1)C(=O)Nc1ccc(C(=O)N[C@@H](CCc2ccccc2)C(=O)O)cc1OCc1ccc2ccccc2c1 — higher, > 5.00
- CSCC[C@H](N)C(=O)Nc1ccc(C(=O)N[C@@H](Cc2c[nH]c3ccccc23)C(=O)O)cc1OCCc1c[nH]c2ccccc12 — higher, > 5.00
- CC(C)C[C@H](NC(=O)c1ccc(NC(=O)[C@@H](N)CC(=O)O)c(OCCc2c[nH]c3ccccc23)c1)C(=O)O — higher, > 5.00
- CC(C)C[C@H](N)C(=O)Nc1ccc(C(=O)N[C@@H](Cc2c[nH]c3ccccc23)C(=O)O)cc1OCCc1c[nH]c2ccccc12 — higher, > 5.00
- N[C@@H](CC(=O)O)C(=O)Nc1ccc(C(=O)N[C@H](CC(=O)O)Cc2c[nH]c3ccccc23)cc1OCCc1c[nH]c2ccccc12 — 1.48 log units higher, 6.22
- COc1ccc(C[C@H](N)C(=O)Nc2ccc(C(=O)N[C@H](CCC(=O)O)Cc3c[nH]c4ccccc34)cc2OCCc2c[nH]c3ccccc23)cc1 — 0.74 log units lower, 4.00
- N[C@@H](Cc1c[nH]c2ccccc12)C(=O)Nc1ccc(C(=O)N[C@@H](CCc2ccccc2)C(=O)O)cc1OCc1ccc2ccccc2c1 — higher, > 5.00
- CSCC[C@H](N)C(=O)Nc1ccc(C(=O)N[C@@H](CCc2ccccc2)C(=O)O)cc1OCc1ccc(Cl)cc1 — not separable, > 4.60
- N[C@@H](CC(=O)O)C(=O)Nc1ccc(C(=O)N[C@@H](CCc2ccccc2)C(=O)O)cc1OCc1ccc2ccccc2c1 — higher, > 5.00
- N[C@@H](Cc1ccc2ccccc2c1)C(=O)Nc1ccc(C(=O)N[C@@H](Cc2c[nH]c3ccccc23)C(=O)O)cc1OCCc1c[nH]c2ccccc12 — higher, > 5.00
- N[C@@H](Cc1ccccc1)C(=O)Nc1ccc(C(=O)N[C@@H](Cc2c[nH]c3ccccc23)C(=O)O)cc1OCCc1c[nH]c2ccccc12 — higher, > 5.00
- CC(C)C[C@H](NC(=O)c1ccc(NC(=O)[C@@H](N)CO)c(OCCc2c[nH]c3ccccc23)c1)C(=O)O — higher, > 5.00
- NC(=O)C[C@H](N)C(=O)Nc1ccc(C(=O)N[C@@H](Cc2c[nH]c3ccccc23)C(=O)O)cc1OCCc1c[nH]c2ccccc12 — 1.36 log units higher, 6.10
- N[C@@H](Cc1ccc(O)cc1)C(=O)Nc1ccc(C(=O)N[C@@H](CCc2ccccc2)C(=O)O)cc1OCc1ccc2ccccc2c1 — higher, > 5.00
- CC[C@H](N)C(=O)Nc1ccc(C(=O)N[C@@H](Cc2c[nH]c3ccccc23)C(=O)O)cc1OCCc1c[nH]c2ccccc12 — higher, > 5.00
- CSCC[C@H](N)C(=O)Nc1ccc(C(=O)N[C@@H](CCc2ccccc2)C(=O)O)cc1OCc1ccc2ccccc2c1 — higher, > 5.00
- CC(C)C[C@H](NC(=O)c1ccc(NC(=O)[C@@H](N)Cc2ccc3ccccc3c2)c(OCCc2c[nH]c3ccccc23)c1)C(=O)O — higher, > 5.00
- N[C@@H](CC(=O)O)C(=O)Nc1ccc(C(=O)N[C@@H](Cc2c[nH]c3ccccc23)C(=O)O)cc1OCCc1c[nH]c2ccccc12 — higher, > 5.00
- CC[C@H](C)[C@H](N)C(=O)Nc1ccc(C(=O)N[C@@H](CCc2ccccc2)C(=O)O)cc1OCc1ccc(Cl)cc1 — not separable, > 4.60
- N[C@@H](Cc1c[nH]c2ccccc12)C(=O)Nc1ccc(C(=O)N[C@@H](CCc2ccccc2)C(=O)O)cc1OCc1ccc(Cl)cc1 — not separable, > 4.60
- COc1ccc(C[C@H](N)C(=O)Nc2ccc(C(=O)N[C@H](CC(=O)O)Cc3c[nH]c4ccccc34)cc2OCCc2c[nH]c3ccccc23)cc1 — 0.44 log units lower, 4.30
- CC(C)[C@H](N)C(=O)Nc1ccc(C(=O)N[C@@H](Cc2c[nH]c3ccccc23)C(=O)O)cc1OCCc1c[nH]c2ccccc12 — higher, > 5.00
- O=C(O)CCC(=O)Nc1ccc(C(=O)N[C@@H](Cc2c[nH]c3ccccc23)C(=O)O)cc1OCCc1c[nH]c2ccccc12 — 1.48 log units higher, 6.22
- N[C@@H](Cc1c[nH]c2ccccc12)C(=O)Nc1ccc(C(=O)N[C@@H](Cc2c[nH]c3ccccc23)C(=O)O)cc1OCCc1c[nH]c2ccccc12 — higher, > 5.00
- CC(C)C[C@H](NC(=O)c1ccc(NC(=O)[C@@H](N)CC(N)=O)c(OCCc2c[nH]c3ccccc23)c1)C(=O)O — higher, > 5.00
- N[C@@H](Cc1ccc(O)cc1)C(=O)Nc1ccc(C(=O)N[C@@H](Cc2c[nH]c3ccccc23)C(=O)O)cc1OCCc1c[nH]c2ccccc12 — higher, > 5.00

Test: Inhibition of HIV1 envelope glycoprotein 41-mediated membrane fusion between virus-transfected human HL2/3 cells and human TZM-bl cells after 6 hrs by luciferase reporter assay
Type: cell-based
Settings: Human immunodeficiency virus 1, TZM-bl

Point of comparison: CC(C)C[C@H](NC(=O)c1ccc(NC(=O)[C@@H](N)Cc2c[nH]c3ccccc23)c(OCCc2c[nH]c3ccccc23)c1)C(=O)O, pIC50 5.30. Against it:
- COc1ccc(C[C@H](N)C(=O)Nc2ccc(C(=O)N[C@@H](Cc3c[nH]c4ccccc34)C(=O)O)cc2OCCc2c[nH]c3ccccc23)cc1 — 0.20 log units lower, 5.10
- Nc1ccc(C(=O)N[C@@H](Cc2ccccc2)C(=O)O)cc1OCc1ccc2ccccc2c1 — not separable, > 4.52
- CC(C)C[C@H](NC(=O)c1ccc(N)c(OCc2ccc3ccccc3c2)c1)C(=O)O — not separable, > 4.52
- Nc1ccc(C(=O)N[C@@H](CCc2ccccc2)C(=O)O)cc1OCCc1c[nH]c2ccccc12 — not separable, > 4.52
- CSCC[C@H](NC(=O)c1ccc(N)c(OCc2ccc(O)cc2)c1)C(=O)O — not separable, > 4.52
- CC[C@H](C)[C@H](NC(=O)c1ccc(N)c(OCCc2c[nH]c3ccccc23)c1)C(=O)O — not separable, > 4.52
- CC[C@H](NC(=O)c1ccc(N)c(OCc2ccc(O)cc2)c1)C(=O)O — not separable, > 4.52
- Nc1ccc(C(=O)N[C@@H](CC(=O)O)C(=O)O)cc1OCc1ccc2ccccc2c1 — not separable, > 4.52
- Nc1ccc(C(=O)N[C@@H](Cc2c[nH]c3ccccc23)C(=O)O)cc1OCCc1c[nH]c2ccccc12 — not separable, > 4.52
- Nc1ccc(C(=O)N[C@@H](Cc2ccc(O)cc2)C(=O)O)cc1OCc1ccc(O)cc1 — not separable, > 4.52
- Nc1ccc(C(=O)N[C@@H](Cc2ccc3ccccc3c2)C(=O)O)cc1OCc1ccc(Cl)cc1 — not separable, > 4.52
- Nc1ccc(C(=O)N[C@@H](Cc2ccc3ccccc3c2)C(=O)O)cc1OCc1ccc(O)cc1 — not separable, > 4.52
- CC(C)[C@H](NC(=O)c1ccc(N)c(OCc2ccc(O)cc2)c1)C(=O)O — not separable, > 4.52
- CC(C)C[C@H](NC(=O)c1ccc(N)c(OCCc2c[nH]c3ccccc23)c1)C(=O)O — not separable, > 4.52
- Nc1ccc(C(=O)N[C@@H](Cc2ccc(O)cc2)C(=O)O)cc1OCc1ccc2ccccc2c1 — not separable, > 4.52
- CC[C@H](C)[C@H](NC(=O)c1ccc(N)c(OCc2ccc(Cl)cc2)c1)C(=O)O — not separable, > 4.52
- Nc1ccc(C(=O)N[C@@H](CCc2ccccc2)C(=O)O)cc1OCc1ccc2ccccc2c1 — not separable, > 4.52
- NC(=O)C[C@H](N)C(=O)Nc1ccc(C(=O)N[C@@H](Cc2c[nH]c3ccccc23)C(=O)O)cc1OCCc1c[nH]c2ccccc12 — within 0.2 log units, 5.22
- Nc1ccc(C(=O)N[C@@H](Cc2ccc(Cl)cc2)C(=O)O)cc1OCCc1c[nH]c2ccccc12 — not separable, > 4.52
- NC(=O)C[C@H](NC(=O)c1ccc(N)c(OCc2ccc(O)cc2)c1)C(=O)O — not separable, > 4.52
- COc1ccc(C[C@H](NC(=O)c2ccc(N)c(OCc3ccc4ccccc4c3)c2)C(=O)O)cc1 — not separable, > 4.52
- CC[C@H](C)[C@H](NC(=O)c1ccc(N)c(OCc2ccc3ccccc3c2)c1)C(=O)O — not separable, > 4.52
- Nc1ccc(C(=O)N[C@@H](CO)C(=O)O)cc1OCc1ccc(O)cc1 — not separable, > 4.52
